These are literature values, as cited in patent publication US8476227B2, “Methods of activating a melanocortin-4 receptor pathway in obese subjects” (Ethicon Endo-Surgery, Inc., priority 2010, dated 2013).

The conditions of this series: rat models; background statement, no dose or regimen given.

Take NDP-MSH: the body weight gain result is recorded as “attenuate” and the food intake entry was “attenuate”.
